Experimental data from patent US6395740B1, “Calcitonin mimetics” (ZymoGenetics, Inc., priority 1997, dated 2002).
In brackets after ≈: the same amount, converted by molar mass.

Tests used:
[1] = system: PTH-induced bone resorption in mouse calvariae; assay: Calvarial assay: inhibition of PTH-induced bone resorption (calcium release); type: cell-based; details: 1 nM PTH 1-34, 72 hours, read-out: Release of PTH Induced Ca++ IC50
Procedure: Calvaria from 4-day old neonatal CD-1 mice (pregnant mice received from Charles River Laboratories, Wilmington, Mass.) were trimmed with fine-tipped scissors to leave the parietal regions, including the sagittal suture. These trimmed bones were placed singly per well into 6-well cell culture cluster plates (Costar, Pleasanton, Calif.) with 1 mL/well of growth medium (DMEM, BioWhittaker, Walkersville, Md.) with 4.5 g/L glucose, 0.29 mg/mL L-glutamine, 1 mM sodium pyruvate, 15% heat-inactivated horse serum, and antibiotics (penicillin-G 50 μg/mL, streptomycin 50 μg/mL, and neomycin 100 μg/mL), and rocked gently (RedRocker™, model PR50-115V, Hoefer, San Francisco, Calif.) at 37° C. in a 5% CO2 humidified incubator for 24 hours preincubation.
Following preincubation, medium was removed and replaced with 1.5 mL/well of growth medium containing 1 nM parathyroid hormone (PTH) 1-34 (Sigma) to stimulate bone resorption. For evaluation of the ability of calcitonin mimetics to inhibit PTH induced bone resorption, mimetic compounds in DMSO were added to the growth medium at concentrations ranging from 1-400 μg/mL (final assay concentration of DMSO less than or equal to […]). In each exierimerec human calcitonin (0.02-20 nM, 0.2-2 nM preferred) was added to PTH treated bones as a positive control. […] All control wells contained a final assay concentration of DMSO equal to that present in calcitonin mimetic treated wells.
Five bones were included in each sample group. Bones were incubated for 72 hours following PTH addition to allow resorption of bone to occur. Observations were made of the general appearance, healthiness and number of cells that migrate from the calvaria during the incubation as a possible indication of possible toxicity. Calvaria to be examined histologically were transferred to glass scintillation vials containing 10 mL of 10% neutral buffered formalin. The medium was removed from the wells, and total calcium measurements were made using a Nova 7/7+7 Electrolyte Analyzer (Nova Biomedical, Waltham, Mass.) according to the manufacturer's specifications. Induction of bone resorption by PTH is seen as an increase in the concentration of calcium in the growth medium due to degradation of the bone matrix.

[2] = target: T1, human calcitonin receptor (Homo sapiens, UniProt P30988); assay: CRE-luciferase assay for calcitonin mimetic activity; type: cell-based
T1 construct: expressed in transfected cells; host or cells: BHK (baby hamster kidney) cells, line Hollex-2 (Hollex 1 in the general description)
T1 sequence (P30988 25-474): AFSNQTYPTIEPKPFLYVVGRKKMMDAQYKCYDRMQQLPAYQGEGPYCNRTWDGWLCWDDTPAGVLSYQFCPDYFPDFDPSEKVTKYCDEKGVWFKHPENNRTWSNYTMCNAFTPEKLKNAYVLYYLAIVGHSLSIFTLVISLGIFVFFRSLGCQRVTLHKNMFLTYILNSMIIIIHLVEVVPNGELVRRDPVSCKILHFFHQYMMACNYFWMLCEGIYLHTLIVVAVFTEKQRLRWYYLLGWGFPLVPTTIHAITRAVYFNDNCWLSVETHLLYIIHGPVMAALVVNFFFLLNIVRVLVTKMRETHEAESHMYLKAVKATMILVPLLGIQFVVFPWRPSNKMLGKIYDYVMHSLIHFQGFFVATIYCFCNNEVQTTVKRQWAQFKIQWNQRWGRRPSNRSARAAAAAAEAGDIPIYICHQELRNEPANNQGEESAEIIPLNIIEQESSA
Text: An alternative assay system (described in WO96/31536 which is incorporated herein in its entirety) involves selection of substances that are able to induce expression of a cyclic AMP response element (CRE)-luciferase reporter gene, as a consequence of elevated cAMP levels, in cells expressing a calcitonin receptor, but not in cells lacking calcitonin receptor expression. Such cells could include, for example, Boris/KS10-3 (expressing hamster calcitonin receptor and a CRE-luciferase reporter gene in baby hamster kidney cells (BHK 570 cells)) or Hollex 1 (expressing human calcitonin receptor and a CRE-luciferase reporter gene in BHK cells, as described in WO96/31536) or KZ10-20-48/pLJ6-4-25, which expresses the human glucagon receptor and a CRE-luciferase reporter gene in BHK cells. The human glucagon receptor is another member of the G-protein-coupled receptor family that transduces signal through adenylate cyclase-mediated elevation of cAMP.
This CRE-luciferase assay measures the end result of a multi-step signal transduction pathway triggered when a calcitonin mimetic stimulates the G-coupled calcitonin receptor. The complexity of this pathway provides multiple mechanisms for induction of luciferase transcription at points that are downstream of the calcitonin receptor, and therefore may not be calcitonin receptor-specific (e.g., forskolin's direct activation of adenylate cyclase). Any response triggered by non-specific inducers is eliminated by counter screening using the calcitonin receptor-negative cell lines described above.
Receptor-positive and -negative cell lines were maintained by serial passage in growth medium (DMEM supplemented with 10% heat-inactivated fetal calf serum (HI-FCS), 2 mM L-glutamine, 1 mM sodium pyruvate, 250 nM MTX, and 1 mg/mL G418). On the day prior to assay, cells were trypsinized, adjusted to 2×10^5 cells/mL in growth medium, plated in opaque white Dynatech Microlite microtiter tissue culture plates at 100 μL/well (2×10^4 cells), and grown overnight to confluence (37° C., 5% CO2 atmosphere)
Test substances were prepared in DMSO at 100 times the final desired assay concentration. Induction was initiated by adding 100 μL/well test substance diluted 1:100 or 1:1000 (only first round screening extracts were diluted 1:100) in assay medium (DMEM supplemented with 10% HI-FCS, 2 mM L-glutamine, 1 mM sodium pyruvate and 20 mM Hepes, pH 7.25). Controls were included on each plate: untreated wells (basal), […] forskolin, and 100 nM human calcitonin. For test substances prepared in DMSO, an equal concentration of DMSO was included in control wells (not to exceed a final assay concentration of 2% DMSO, with a preferred maximum of 1%). Plates were incubated for 3 to 8 hours (4 hours preferred) at 37° C. in an atmosphere of 5% CO2.
Following induction, luciferase activity was measured using a Promega luciferase assay kit (E1500) according to the assay kit protocol. Briefly, assay medium was removed and cells were washed once with phosphate buffered saline (PBS). After the wash, 25 μL of lysis buffer was added to each well, and the plates were incubated for 15 minutes at room temperature. Fifty microliters of Luciferase Assay Substrate (Promega, Corp.) was added to each well and the plates were transferred to a Labsystems Lumiscan microtiter luminometer. The amount of luminescence (relative light units, RLU) was determined by “Fastscan” following a 0.1 second/well integration of signal. Basal (uninduced) luciferase signal was subtracted from all measurements, and the luciferase signal induced by test samples was expressed as a percentage of the signal in the calcitonin and forskolin controls. […]

COc1cc(CN2CCN(C(=O)Nc3cccc(C(F)(F)F)c3)CC2)ccc1O [Compound 850-0231]
IC50 [1]: 25 to 50 µg/mL (≈ 61.1 to 122 µM) | EC50 [2]: 61.1 to 122 µM
